According to patent US11020395B2, “Cycloalkyl substituted triazole compounds as agonists of the APJ receptor” (AMGEN INC., priority 2016, dated 2021):

Target: human APJ receptor (Homo sapiens (Human), UniProt P35414)
Assay: [35S]GTPγS binding assay on membranes from CHO cells stably expressing human APJ receptor
Type: biochemical
Settings: [35S]GTPγS SPA, read-out: Activity hAPJ SPA EC50 IP
Outline: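 Membranes from CHO cells stably expressing FLAG-tagged human APJ were incubated with [35S]GTPγS in buffer with optimized GDP, MgCl2 and NaCl, 90 min at RT. EC50 values derived by non-linear regression, averaged over several independent experiments.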

human APJ receptor, sequence (P35414 whole entry): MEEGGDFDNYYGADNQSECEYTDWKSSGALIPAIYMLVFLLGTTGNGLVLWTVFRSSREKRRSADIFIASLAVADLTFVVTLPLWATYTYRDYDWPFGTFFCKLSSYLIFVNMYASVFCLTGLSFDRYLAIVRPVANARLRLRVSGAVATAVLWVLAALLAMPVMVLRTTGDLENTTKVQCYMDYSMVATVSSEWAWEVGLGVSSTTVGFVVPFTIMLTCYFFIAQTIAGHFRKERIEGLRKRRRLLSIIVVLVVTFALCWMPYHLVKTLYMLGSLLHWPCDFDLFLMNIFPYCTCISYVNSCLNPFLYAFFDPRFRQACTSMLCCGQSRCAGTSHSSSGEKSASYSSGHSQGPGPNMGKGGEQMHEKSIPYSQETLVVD

Point of comparison: COc1ncnc(OC)c1-n1c(NS(=O)(=O)[C@@H](C)[C@H](OC)c2cnc(C)cn2)nnc1C1CCC1 [Example 82.0, (1R,2S)-N-(5-cyclobutyl-4-(4,6-dimethoxy-5-pyrimidinyl)-4H-1,2,4-triazol-3-yl)-1-methoxy-1-(5-methyl-2-pyrazinyl)-2-propanesulfonamide], EC50 50 nM. Against it:
- COc1cccc(OC)c1-n1c(NS(=O)(=O)[C@@H](C)[C@@H](OC(C)C)c2ncc(C)cn2)nnc1[C@@H]1CCC(=O)C1 (single isomer, unassigned) [Example 230.0, (1S,2S)-N-(4-(2,6-dimethoxyphenyl)-5-((R)-3-oxocyclopentyl)-4H-1,2,4-triazol-3-yl)-1-isopropoxy-1-(5-methylpyrimidin-2-yl)propane-2-sulfonamide or (1S,2S)-N-(4-(2,6-dimethoxyphenyl)-5-((S)-3-oxocyclopentyl)-4H-1,2,4-triazol-3-yl)-1-isopropoxy-1-(5-methylpyrimidin-2-yl)propane-2-sulfonamide] — 3.8-fold higher, 190 nM
- COc1cccc(OC)c1-n1c(NS(=O)(=O)[C@@H](C)[C@H](OC)c2ncc(Cl)cn2)nnc1[C@H]1C[C@@H](C#N)C1 (single isomer, unassigned) [Example 121.0, (1R,2S)-1-(5-chloro-2-pyrimidinyl)-N-(5-(cis-3-cyanocyclobutyl)-4-(2,6-dimethoxyphenyl)-4H-1,2,4-triazol-3-yl)-1-methoxy-2-propanesulfonamide or (1R,2S)-1-(5-chloro-2-pyrimidinyl)-N-(5-(trans-3-cyanocyclobutyl)-4-(2,6-dimethoxyphenyl)-4H-1,2,4-triazol-3-yl)-1-methoxy-2-propanesulfonamide] — 9.3-fold lower, 5.4 nM
- COCC(COC)n1c(NS(=O)(=O)[C@@H](C)[C@H](OC)c2ncc(Cl)cn2)nnc1[C@H]1C[C@H](CO)C1 (single isomer, unassigned) [Example 131.0, (1R,2S)-1-(5-chloropyrimidin-2-yl)-N-(4-(1,3-dimethoxypropan-2-yl)-5-((1r,3S)-3-(hydroxymethyl)cyclobutyl)-4H-1,2,4-triazol-3-yl)-1-methoxypropane-2-sulfonamide or (1R,2S)-1-(5-chloropyrimidin-2-yl)-N-(4-(1,3-dimethoxypropan-2-yl)-5-((1s,3R)-3-(hydroxymethyl)cyclobutyl)-4H-1,2,4-triazol-3-yl)-1-methoxypropane-2-sulfonamide] — 2.2-fold higher, 110 nM
- CO[C@H](c1ncc(Cl)cn1)[C@H](C)S(=O)(=O)Nc1nnc(C2CCC2)n1C1CCOCC1 [Example 97.0, (1R,2S)-1-(5-chloropyrimidin-2-yl)-N-(5-cyclobutyl-4-(tetrahydro-2H-pyran-4-yl)-4H-1,2,4-triazol-3-yl)-1-methoxypropane-2-sulfonamide] — 7.4-fold higher, 370 nM
- COc1cccc(OC)c1-n1c(NS(=O)(=O)[C@@H](C)[C@H](OC)c2ncc(Cl)cn2)nnc1[C@H]1CC(=O)C1(C)C (single isomer, unassigned) [Example 197.0, (1R,2S)-1-(5-chloropyrimidin-2-yl)-N-(4-(2,6-dimethoxyphenyl)-5-((R)-2,2-dimethyl-3-oxocyclobutyl)-4H-1,2,4-triazol-3-yl)-1-methoxypropane-2-sulfonamide or (1R,2S)-1-(5-chloropyrimidin-2-yl)-N-(4-(2,6-dimethoxyphenyl)-5-((S)-2,2-dimethyl-3-oxocyclobutyl)-4H-1,2,4-triazol-3-yl)-1-methoxypropane-2-sulfonamide] — 17-fold higher, 870 nM
- (2S,3R)-3-(5-chloropyrimidin-2-yl)-N-(4-(2,6-dimethoxyphenyl)-5-((S)-spiro[2.2]pentan-1-yl)-4H-1,2,4-triazol-3-yl)butane-2-sulfonamide or (2S,3R)-3-(5-chloropyrimidin-2-yl)-N-(4-(2,6-dimethoxyphenyl)-5-((R)-spiro[2.2]pentan-1-yl)-4H-1,2,4-triazol-3-yl)butane-2-sulfonamide [Example 218.0] — 45-fold lower, 1.1 nM
- COc1cccc(OC)c1-n1c(NS(=O)(=O)[C@@H](C)[C@H](OC)c2ncc(Cl)cn2)nnc1[C@H]1C[C@H](C(F)(F)F)C1 (single isomer, unassigned) [Example 150.0, (1R,2S)-1-(5-chloropyrimidin-2-yl)-N-(4-(2,6-dimethoxyphenyl)-5-((1r,3S)-3-(trifluoromethyl)cyclobutyl)-4H-1,2,4-triazol-3-yl)-1-methoxypropane-2-sulfonamide or (1R,2S)-1-(5-chloropyrimidin-2-yl)-N-(4-(2,6-dimethoxyphenyl)-5-((1s,3R)-3-(trifluoromethyl)cyclobutyl)-4H-1,2,4-triazol-3-yl)-1-methoxypropane-2-sulfonamide] — 7.4-fold lower, 6.8 nM
- COc1cccc(OC)c1-n1c(NS(=O)(=O)[C@@H](C)[C@@H](OC(C)C)c2ncc(C)cn2)nnc1[C@@H]1CCC[C@@H]1OC (single isomer, unassigned) [Example 235.0] — 3-fold higher, 150 nM
- COc1ncnc(OC)c1-n1c(NS(=O)(=O)[C@@H](C)[C@H](OC)c2ncc(Cl)cn2)nnc1[C@H]1CC[C@@H](C(F)(F)F)CC1 (single isomer, unassigned) [Example 173.0, (1R,2S)-1-(5-chloropyrimidin-2-yl)-N-(4-(4,6-dimethoxypyrimidin-5-yl)-5-((1s,4R)-4-(trifluoromethyl)cyclohexyl)-4H-1,2,4-triazol-3-yl)-1-methoxypropane-2-sulfonamide or (1R,2S)-1-(5-chloropyrimidin-2-yl)-N-(4-(4,6-dimethoxypyrimidin-5-yl)-5-((1r,4S)-4-(trifluoromethyl)cyclohexyl)-4H-1,2,4-triazol-3-yl)-1-methoxypropane-2-sulfonamide] — 3.8-fold lower, 13 nM
- COc1cccc(OC)c1-n1c(NS(=O)(=O)[C@@H](C)[C@H](OC)c2ncc(Cl)cn2)nnc1[C@H]1C[C@@](C)(F)C1 (single isomer, unassigned) [Example 195.0, (1R,2S)-1-(5-chloropyrimidin-2-yl)-N-(4-(2,6-dimethoxyphenyl)-5-((1s,3R)-3-fluoro-3-methylcyclobutyl)-4H-1,2,4-triazol-3-yl)-1-methoxypropane-2-sulfonamide or (1R,2S)-1-(5-chloropyrimidin-2-yl)-N-(4-(2,6-dimethoxyphenyl)-5-((1r,3S)-3-fluoro-3-methylcyclobutyl)-4H-1,2,4-triazol-3-yl)-1-methoxypropane-2-sulfonamide] — 19-fold lower, 2.6 nM
- COc1cccc(OC)c1-n1c(NS(=O)(=O)[C@@H](C)[C@H](OC)c2ncc(Cl)cn2)nnc1C1CCC1C#N (single isomer, unassigned) [Example 169.0, (1R,2S)-1-(5-chloropyrimidin-2-yl)-N-(5-((1R,2S)-2-cyanocyclobutyl)-4-(2,6-dimethoxyphenyl)-4H-1,2,4-triazol-3-yl)-1-methoxypropane-2-sulfonamide or (1R,2S)-1-(5-chloropyrimidin-2-yl)-N-(5-((1S,2R)-2-cyanocyclobutyl)-4-(2,6-dimethoxyphenyl)-4H-1,2,4-triazol-3-yl)-1-methoxypropane-2-sulfonamide] — 2.4-fold lower, 21 nM
